Data reported in publication PMC4077385, “Synthesis of the first examples of iminosugar clusters based on cyclopeptoid cores” (Beilstein Journal of Organic Chemistry, 2014).
Read-outs that look alike come from different tables or passages of the source.

Target: T1, jack bean α-mannosidase (Canavalia ensiformis, UniProt C0HJB3)
T1 construct: purchased Sigma–Aldrich
T1 sequence (C0HJB3 1-981): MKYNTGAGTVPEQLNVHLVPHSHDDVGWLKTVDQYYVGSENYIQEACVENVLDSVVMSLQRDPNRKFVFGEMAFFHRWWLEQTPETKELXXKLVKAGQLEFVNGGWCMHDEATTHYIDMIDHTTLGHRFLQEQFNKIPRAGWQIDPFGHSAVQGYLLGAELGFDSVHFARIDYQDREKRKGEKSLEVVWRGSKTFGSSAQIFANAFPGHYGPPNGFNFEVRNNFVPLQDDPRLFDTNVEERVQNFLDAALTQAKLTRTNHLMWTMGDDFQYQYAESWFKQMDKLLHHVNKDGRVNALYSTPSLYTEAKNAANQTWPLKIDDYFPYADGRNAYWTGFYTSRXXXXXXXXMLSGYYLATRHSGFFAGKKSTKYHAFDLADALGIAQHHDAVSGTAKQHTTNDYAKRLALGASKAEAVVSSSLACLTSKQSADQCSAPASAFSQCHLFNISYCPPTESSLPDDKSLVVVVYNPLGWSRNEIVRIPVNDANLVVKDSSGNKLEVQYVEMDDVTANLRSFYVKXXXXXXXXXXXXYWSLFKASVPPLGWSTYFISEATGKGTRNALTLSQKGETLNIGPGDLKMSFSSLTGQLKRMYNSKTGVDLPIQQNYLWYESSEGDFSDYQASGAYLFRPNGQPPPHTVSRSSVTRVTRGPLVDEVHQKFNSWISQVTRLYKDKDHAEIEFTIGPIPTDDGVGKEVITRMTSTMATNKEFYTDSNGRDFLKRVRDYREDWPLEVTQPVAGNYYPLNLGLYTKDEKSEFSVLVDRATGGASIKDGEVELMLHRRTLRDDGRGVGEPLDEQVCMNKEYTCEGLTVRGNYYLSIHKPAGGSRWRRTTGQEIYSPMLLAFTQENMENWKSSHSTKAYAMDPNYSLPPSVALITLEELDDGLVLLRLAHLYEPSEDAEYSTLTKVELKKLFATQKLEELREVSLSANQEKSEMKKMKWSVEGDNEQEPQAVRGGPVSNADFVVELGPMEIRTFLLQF
Assay: Jack bean α-mannosidase inhibition assay (Ki, Dixon method)
Assay type: biochemical
Settings: for rp (relative inhibition potency): Ki (monovalent reference)/Ki (glycocluster), reference 11a for C6, 11b for C9 linker; for rp/n: relative inhibition potency/number of iminosugar units (valency-corrected)
Method: General procedure for inhibition assay
The p-nitrophenyl-α-D-mannopyranoside and α-mannosidase (EC 3.2.1.24, from jack bean, […]
The release of p-nitrophenol was measured continuously at 385 nm to determine initial velocities.[1] All kinetics were performed at 35 °C and started by substrate addition in a 1 mL assay medium (acetate buffer, 0.2 M, pH = 5) containing α-mannosidase (5 mU), substrate (varying concentration from Km/4 to Km value) in presence or absence of various concentrations of inhibitor. Ki […]
are only partially soluble in water, they were dissolved in DMSO for concentrated mother solutions and DMSO/buffer for diluted solutions with a final DMSO concentration under […]
2,5% in all vials. […]
1 Behr, J.-B.; Chevrier, C.; Defoin, A.; Tarnus, C.; Streith, J. Tetrahedron 2003, 59, 543–553.
2 Segel, I. H. Enzyme Kinetics; John Wiley & Sons, New York, 1975, p. 109–144.

[1] = α-mannosidase EC 3.2.1.24 (5 mU), substrate p-nitrophenyl-α-D-mannopyranoside Km/4 to Km, acetate buffer 0.2 M pH 5, 35 °C, p-nitrophenol release at 385 nm, DMSO under 2,5%, Dixon graphical method, determined in duplicate, read-out: Ki

How did the Ki turn out when O=C1CN(Cc2cn(CCCCCCCCCN3C[C@H](O)[C@@H](O)[C@H](O)[C@H]3CO)nn2)C(=O)CN(Cc2cn(CCCCCCCCCN3C[C@H](O)[C@@H](O)[C@H](O)[C@H]3CO)nn2)C(=O)CN(Cc2cn(CCCCCCCCCN3C[C@H](O)[C@@H](O)[C@H](O)[C@H]3CO)nn2)C(=O)CN(Cc2cn(CCCCCCCCCN3C[C@H](O)[C@@H](O)[C@H](O)[C@H]3CO)nn2)C(=O)CN(Cc2cn(CCCCCCCCCN3C[C@H](O)[C@@H](O)[C@H](O)[C@H]3CO)nn2)C(=O)CN(Cc2cn(CCCCCCCCCN3C[C@H](O)[C@@H](O)[C@H](O)[C@H]3CO)nn2)C(=O)CN(Cc2cn(CCCCCCCCCN3C[C@H](O)[C@@H](O)[C@H](O)[C@H]3CO)nn2)C(=O)CN(Cc2cn(CCCCCCCCCN3C[C@H](O)[C@@H](O)[C@H](O)[C@H]3CO)nn2)C(=O)CN(Cc2cn(CCCCCCCCCN3C[C@H](O)[C@@H](O)[C@H](O)[C@H]3CO)nn2)C(=O)CN1Cc1cn(CCCCCCCCCN2C[C@H](O)[C@@H](O)[C@H](O)[C@H]2CO)nn1 [Compound 10f] was run?
The Ki was 5 ± 1 µM.

O=C1CN(Cc2cn(CCCCCCCCCN3C[C@H](O)[C@@H](O)[C@H](O)[C@H]3CO)nn2)C(=O)CN(Cc2cn(CCCCCCCCCN3C[C@H](O)[C@@H](O)[C@H](O)[C@H]3CO)nn2)C(=O)CN(Cc2cn(CCCCCCCCCN3C[C@H](O)[C@@H](O)[C@H](O)[C@H]3CO)nn2)C(=O)CN(Cc2cn(CCCCCCCCCN3C[C@H](O)[C@@H](O)[C@H](O)[C@H]3CO)nn2)C(=O)CN(Cc2cn(CCCCCCCCCN3C[C@H](O)[C@@H](O)[C@H](O)[C@H]3CO)nn2)C(=O)CN(Cc2cn(CCCCCCCCCN3C[C@H](O)[C@@H](O)[C@H](O)[C@H]3CO)nn2)C(=O)CN(Cc2cn(CCCCCCCCCN3C[C@H](O)[C@@H](O)[C@H](O)[C@H]3CO)nn2)C(=O)CN1Cc1cn(CCCCCCCCCN2C[C@H](O)[C@@H](O)[C@H](O)[C@H]2CO)nn1 [Compound 10d] was tested. Which Ki did it give?
Its Ki is 8 ± 3 µM.

O=C1CN(Cc2cn(CCCCCCN3C[C@H](O)[C@@H](O)[C@H](O)[C@H]3CO)nn2)C(=O)CN(Cc2cn(CCCCCCN3C[C@H](O)[C@@H](O)[C@H](O)[C@H]3CO)nn2)C(=O)CN(Cc2cn(CCCCCCN3C[C@H](O)[C@@H](O)[C@H](O)[C@H]3CO)nn2)C(=O)CN(Cc2cn(CCCCCCN3C[C@H](O)[C@@H](O)[C@H](O)[C@H]3CO)nn2)C(=O)CN(Cc2cn(CCCCCCN3C[C@H](O)[C@@H](O)[C@H](O)[C@H]3CO)nn2)C(=O)CN1Cc1cn(CCCCCCN2C[C@H](O)[C@@H](O)[C@H](O)[C@H]2CO)nn1 [Compound 10a] was tested. Which Ki [1] did it give?
The Ki was 65 ± 24 µM.

For O=C1CN(Cc2cn(CCCCCCN3C[C@H](O)[C@@H](O)[C@H](O)[C@H]3CO)nn2)C(=O)CN(Cc2cn(CCCCCCN3C[C@H](O)[C@@H](O)[C@H](O)[C@H]3CO)nn2)C(=O)CN(Cc2cn(CCCCCCN3C[C@H](O)[C@@H](O)[C@H](O)[C@H]3CO)nn2)C(=O)CN(Cc2cn(CCCCCCN3C[C@H](O)[C@@H](O)[C@H](O)[C@H]3CO)nn2)C(=O)CN(Cc2cn(CCCCCCN3C[C@H](O)[C@@H](O)[C@H](O)[C@H]3CO)nn2)C(=O)CN(Cc2cn(CCCCCCN3C[C@H](O)[C@@H](O)[C@H](O)[C@H]3CO)nn2)C(=O)CN(Cc2cn(CCCCCCN3C[C@H](O)[C@@H](O)[C@H](O)[C@H]3CO)nn2)C(=O)CN1Cc1cn(CCCCCCN2C[C@H](O)[C@@H](O)[C@H](O)[C@H]2CO)nn1 [Compound 10c], which Ki is on record?
The Ki was 21 ± 2 µM.

O=C1CN(Cc2cn(CCCCCCN3C[C@H](O)[C@@H](O)[C@H](O)[C@H]3CO)nn2)C(=O)CN(Cc2cn(CCCCCCN3C[C@H](O)[C@@H](O)[C@H](O)[C@H]3CO)nn2)C(=O)CN(Cc2cn(CCCCCCN3C[C@H](O)[C@@H](O)[C@H](O)[C@H]3CO)nn2)C(=O)CN(Cc2cn(CCCCCCN3C[C@H](O)[C@@H](O)[C@H](O)[C@H]3CO)nn2)C(=O)CN(Cc2cn(CCCCCCN3C[C@H](O)[C@@H](O)[C@H](O)[C@H]3CO)nn2)C(=O)CN(Cc2cn(CCCCCCN3C[C@H](O)[C@@H](O)[C@H](O)[C@H]3CO)nn2)C(=O)CN(Cc2cn(CCCCCCN3C[C@H](O)[C@@H](O)[C@H](O)[C@H]3CO)nn2)C(=O)CN(Cc2cn(CCCCCCN3C[C@H](O)[C@@H](O)[C@H](O)[C@H]3CO)nn2)C(=O)CN(Cc2cn(CCCCCCN3C[C@H](O)[C@@H](O)[C@H](O)[C@H]3CO)nn2)C(=O)CN1Cc1cn(CCCCCCN2C[C@H](O)[C@@H](O)[C@H](O)[C@H]2CO)nn1 [Compound 10e] was tested. Which “rp (relative inhibition potency)” value did it give?
The value was 21.

What about the Ki (as E1 but single determination of Ki without duplicate) of the same compound?
The Ki was 15 ± 10 µM.

And the rp/n?
The rp/n was 2.1.

With O=C1CN(Cc2cn(CCCCCCCCCN3C[C@H](O)[C@@H](O)[C@H](O)[C@H]3CO)nn2)C(=O)CN(Cc2cn(CCCCCCCCCN3C[C@H](O)[C@@H](O)[C@H](O)[C@H]3CO)nn2)C(=O)CN(Cc2cn(CCCCCCCCCN3C[C@H](O)[C@@H](O)[C@H](O)[C@H]3CO)nn2)C(=O)CN(Cc2cn(CCCCCCCCCN3C[C@H](O)[C@@H](O)[C@H](O)[C@H]3CO)nn2)C(=O)CN(Cc2cn(CCCCCCCCCN3C[C@H](O)[C@@H](O)[C@H](O)[C@H]3CO)nn2)C(=O)CN1Cc1cn(CCCCCCCCCN2C[C@H](O)[C@@H](O)[C@H](O)[C@H]2CO)nn1 [Compound 10b] as the compound, how does the “rp (relative inhibition potency)” value read?
Its value is 17.

What about the rp/n of the same compound?
Its rp/n is 2.8.

What about the Ki [1] of the same compound?
Its Ki is 11 ± 1 µM.
